# US12091425B2 (AMGEN INC., priority 2016, dated 2024)
# pIC50: −log10 of the molar value.
# How the values were obtained:
# [1] = target: T1, Mcl-1/Bim interaction, recombinant human Mcl-1 (171-327) (Homo sapiens, UniProt Q07820); test: Cell free Mcl-1: Bim Affinity Assay (Mcl-1 HTRF); type: binding
# T1 construct: made in house
# Summary of the method: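 Displacement of biotinylated Bim 51-76 peptide is followed by TR-FRET. Incubation runs overnight. Duplicate points are fitted with a four-parameter sigmoid to yield IC50.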
# [2] = test system: OPM-2 human multiple myeloma cell line; test: Cell Viability Assay (OPM-2 10 FBS); type: cell-based; details: OPM-2 cells, 16 h, CellTiter-Glo
# Summary of the method: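 Plated at 3000 cells/well in 10% FBS complete medium, the cells received a serial compound dilution series and incubated 16 h at 37 °C with 5% CO2. CellTiter-Glo was then added; IC50 values were fitted with a logistic 4-parameter model.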
# [3] = TR-FRET, 0.1 nM Mcl-1 (171-327), 0.05 nM biotin-Bim (51-76)
# [4] = cell free Mcl-1:Bim TR-FRET, recombinant human Mcl-1 (171-327)
# T1 sequence (Q07820 171-327): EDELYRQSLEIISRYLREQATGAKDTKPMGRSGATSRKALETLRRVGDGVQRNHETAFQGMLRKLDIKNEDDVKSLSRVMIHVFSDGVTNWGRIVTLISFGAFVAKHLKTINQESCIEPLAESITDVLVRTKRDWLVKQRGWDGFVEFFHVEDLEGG
"pIC50 [1, 3]","pIC50 ([2]; Homo sapiens, OPM-2, 16 h)","pIC50 [1, 4]",SMILES,pIC50 [2]
8.88,5.06,,"Cn1cnc(CO[C@@H]2/C=C/CCCS(=O)(=O)NC(=O)c3ccc4c(c3)N(C[C@@H]3CC[C@H]32)C[C@@]2(CCCc3cc(Cl)ccc32)CO4)n1 [Example 215, (1S,3′R,6′R,7′R,8′E)-6-chloro-7′-((1-methyl-1H-1,2,4-triazol-3-yl)methoxy)-3,4-dihydro-2H,15′H-spiro[naphthalene-1,22′-[20]oxa[13]thia[1,14]diazatetracyclo[14.7.2.0^3,6.0^19,24]pentacosa [8,16,18,24]tetraen]-15′-one 13′,13′-dioxide]",
9.90,6.52,,"COC1CN(C(=O)CO[C@H]2/C=C/C[C@H](C)[C@@H](C)S(=O)(=O)NC(=O)c3ccc4c(c3)N(C[C@@H]3CC[C@H]32)C[C@@]2(CCCc3cc(Cl)ccc32)CO4)C1 [Example 307, (1S,3′R,6′R,7′S,8′E,11′S,12′R)-6-chloro-7′-(2-(3-methoxy-1-azetidinyl)-2-oxoethoxy)-11′,12′-dimethyl-3,4-dihydro-2H,15′H-spiro[naphthalene-1,22′-[20]oxa[13]thia[1,14]diazatetracyclo[14.7.2.0^3,6.0^19,24]pentacosa [8,16,18,24]tetraen]-15′-one 13′,13′-dioxide]",
,4.71,9.00,"O=C1NS(=O)(=O)C/C=C/C2(O)CCOC(C2)C2CCC2CN2CC3(CCCc4cc(Cl)ccc43)COc3ccc1cc32 (single isomer, unassigned) [Example 851]",
,6.82,9.55,"C[C@@H]1[C@@H](C)C/C=C/[C@H](OCCNC2COC2)[C@@H]2CC[C@H]2CN2C[C@@]3(CCCc4cc(Cl)ccc43)COc3ccc(cc32)C(=O)NS1(=O)=O [Example 522, (1S,3′R,6′R,7′S,8′E,11′5,12′R)-6-chloro-11′,12′-dimethyl-7′-(2-(3-oxetanylamino)ethoxy)-3,4-dihydro-2H,15′H-spiro[naphthalene-1,22′-[20]oxa[13]thia[1,14]diazatetracyclo[14.7.2.0^3,6.0^19,24]pentacosa [8,16,18,24]tetraen]-15′-one 13′,13′-dioxide 2,2,2-trifluoroacetic Acid]",
,4.94,7.77,"CC1CC=CC(O)C2CCC2CN2CC3(CCCc4cc(Cl)ccc43)COc3ccc(cc32)C(=O)NS(=O)(=O)N1Cc1ccccn1 (single isomer, unassigned) [Example 668]",
9.23,6.35,,"CO[C@H]1C[C@@H](N2[C@@H](C)C/C=C/[C@H](O)[C@@H]3CC[C@H]3CN3C[C@@]4(CCCc5cc(Cl)ccc54)COc4ccc(cc43)C(=O)NS2(=O)=O)C1 [Example 77, (1S,3′R,6′R,7′S,8′E,11′S)-6-chloro-7′-hydroxy-12′-(cis-3-methoxycyclobutyl)-11′-methyl-3,4-dihydro-2H,15′H-spiro[naphthalene-1,22′-[20]oxa[13]thia[1,12,14]triazatetracyclo[14.7.2.0^3,6.0^19,24]pentacosa[8,16,18,24]tetraen]-15′-one 13′,13′-dioxide]",
9.28,6.29,,"CNC(=O)C(OC)C1C=CC2CCC2CN2CC3(CCCc4cc(Cl)ccc43)COc3ccc(cc32)C(=O)NS(=O)(=O)C(C)C(C)C1 (single isomer, unassigned) [Example 361]",

SMILES,"pIC50 [1, 3]","pIC50 ([2]; Homo sapiens, OPM-2, 16 h)","pIC50 [1, 4]",pIC50 [2]
"CC[C@H]1[C@H](OC)C/C=C/[C@H](O)[C@@H]2CC[C@H]2CN2C[C@@]3(CCCc4cc(Cl)ccc43)COc3ccc(cc32)C(=O)NS1(=O)=O (single isomer, unassigned) [Example 459]",8.47,,,5.48
"CO[C@H]1/C=C/CC[C@@H](CO)S(=O)(=O)NC(=O)c2ccc3c(c2)N(C[C@@H]2CC[C@H]21)C[C@@]1(CCCc2cc(Cl)ccc21)CO3 (single isomer, unassigned) [Example 446]",9.31,,,6.38
"O=C1NS(=O)(=O)C[C@@H]2C[C@@H]2/C=C/[C@H](O)[C@@H]2CC[C@H]2CN2C[C@@]3(CCCc4cc(Cl)ccc43)COc3ccc1cc32 (single isomer, unassigned) [Example 785]",,,8.52,4.80
